Test results reported in patent US20120095022A1, “DERIVATIVES OF 10-AMINO-1,2,3,4-TETRAHYDROPYRIDO[2,1-A]ISOINDOL-6(10BH)-ONES, METHOD FOR PREPARATION THEREOF AND THERAPEUTIC USES THEREOF” (UNIVERSITE D'ORLEANS, priority 2009, published 2012).

How the values were obtained:
MDA-MB 231 (breast) = assay: Cytotoxicity on human cells, automated nuclei counting: MDA-MB 231; assay type: cell-based; conditions: MDA-MB 231 cells, exposed 24 h to 48 h, 0.1 to 25 μM
Summary of the method: (§1)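 Read-out: automated imaging analysis. Cells in DMEM or RPMI + 10% FCS + pen-strep, 37° C, 5% CO2; 4.10^3 cells/well, 24 h settling before dosing at increasing concentrations. Vehicle controls: DMSO, max 1%.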

Huh7 (liver) = assay: Cytotoxicity on human cells, automated nuclei counting: Huh7; assay type: cell-based; conditions: Huh-7, exposed 24 h to 48 h, 0.1 to 25 μM
Summary of the method: as §1

NCI (lung) = assay: Cytotoxicity on human cells, automated nuclei counting: NCI; assay type: cell-based; conditions: exposed 24 h to 48 h, 0.1 to 25 μM
Summary of the method: as §1

fibroblast = assay: Cytotoxicity on human cells, automated nuclei counting: fibroblast; assay type: cell-based; conditions: exposed 24 h to 48 h, 0.1 to 25 μM
Summary of the method: as §1

GSK-3αβ = assay: GSK-3 kinase inhibition (GS-1 substrate); conditions: read-out: IC50 μM Kinases GSK3, buffer A, 30° C., 15 μM ATP
PC3 (prostate) = assay: Cytotoxicity on human cells, automated nuclei counting: PC3; assay type: cell-based; conditions: PC-3, exposed 24 h to 48 h, 0.1 to 25 μM
Summary of the method: as §1

HCT 116 (colon) = assay: Cytotoxicity on human cells, automated nuclei counting: HCT 116; assay type: cell-based; conditions: HCT 116 cells, exposed 24 h to 48 h, 0.1 to 25 μM
Summary of the method: as §1

DYRK1A = DYRK1A (Homo sapiens, UniProt Q13627); assay: DYRK1A kinase inhibition (Woodtide substrate)
CDK5/D25 = target: T1, CDK5/D25 (Homo sapiens, UniProt Q00535); assay: CDK5 kinase inhibition (33P-ATP, histone H1); assay type: biochemical; conditions: buffer C, 30° C., 15 μM ATP, read-out: IC50 μM Kinases CDK5
T1 construct: made in house
T1 sequence (Q00535 whole entry): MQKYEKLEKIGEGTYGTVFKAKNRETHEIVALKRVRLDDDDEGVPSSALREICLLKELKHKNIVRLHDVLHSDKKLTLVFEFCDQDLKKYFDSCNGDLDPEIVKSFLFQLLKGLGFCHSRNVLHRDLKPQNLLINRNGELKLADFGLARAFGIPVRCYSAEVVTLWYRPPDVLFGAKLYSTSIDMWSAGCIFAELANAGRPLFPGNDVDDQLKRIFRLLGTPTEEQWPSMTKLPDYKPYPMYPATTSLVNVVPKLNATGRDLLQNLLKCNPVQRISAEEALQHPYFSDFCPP
T1 sequence (Q15078 99-307 partner limits assumed): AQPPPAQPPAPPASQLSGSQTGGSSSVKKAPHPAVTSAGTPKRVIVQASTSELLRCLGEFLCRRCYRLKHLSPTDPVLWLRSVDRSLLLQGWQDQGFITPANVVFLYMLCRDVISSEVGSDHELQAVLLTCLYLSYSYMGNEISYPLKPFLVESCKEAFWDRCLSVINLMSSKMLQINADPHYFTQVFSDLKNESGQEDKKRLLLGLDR
Summary of the method: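 Kinase reactions ran in buffer C (25 mM Mops pH 7.2, 15 mM MgCl2, 1 mM DTT, phosphatase inhibitors) with [33P]-ATP for 30 min at 30° C. Phosphorylated substrate was captured on P81 phosphocellulose filters, washed in phosphoric acid and counted by scintillation.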

Caco (colon) = assay: Cytotoxicity on human cells, automated nuclei counting: Caco; assay type: cell-based; conditions: exposed 24 h to 48 h, 0.1 to 25 μM
Summary of the method: as §1

| Structure (SMILES) | IC50 (MDA-MB 231 (breast)) [µM] | IC50 (Huh7 (liver)) [µM] | IC50 (NCI (lung)) [µM] | melting point [°C] | IC50 (fibroblast) [µM] | IC50 (GSK-3αβ) [µM] | IC50 (PC3 (prostate)) [µM] | IC50 (HCT 116 (colon)) [µM] | IC50 (DYRK1A) [µM] | IC50 (CDK5/D25) [µM] | IC50 (Caco (colon)) [µM] |
| --- | --- | --- | --- | --- | --- | --- | --- | --- | --- | --- | --- |
| O=C(Nc1csc(-c2ccncc2)n1)Nc1cccc2c1C1CCCCN1C2=O (stereo not shown) [Compound 37, 1-(6-Oxo-1,2,3,4,6,10b-hexahydropyrido[2,1-a]isoindol-10-yl)-3-(2-(pyridin-4-yl)thiazol-4-yl)urea] | 1.5 | 2 | 4 | 152 | 3 | 0.13 | 1 | 0.7 | 2.4 | 1.7 | 1.5 |
| O=C(Nc1ncccn1)Nc1cccc2c1C1CCCCN1C2=O (stereo not shown) [Compound 42, 1-(6-oxo-1,2,3,4,6,10b-hexahydro-pyrido[2,1-a]isoindol-10-yl)-3-pyrimidin-2-yl-urea] | 4 | 0.6 | 8 | 232 | 2.5 | 0.75 | 2 | 4 | > 10 | > 10 | 2 |
| Cc1cccnc1NC(=O)Nc1cccc2c1C1CC3(CCN1C2=O)OCCO3 (stereo not shown) [Compound 45] | > 25 | > 25 | > 25 | > 260 | > 25 | 0.61 | > 25 | 25 | > 10 | 3.1 | > 25 |
| Cc1cccc(NC(=O)Nc2cccc3c2C2CC4(CCN2C3=O)OCCO4)n1 (stereo not shown) [Compound 46] | 15 | 12 | 12 | 240 to 242 | 20 | 0.92 | 12 | 10 | > 10 | > 10 | 10 |
| O=C(Nc1cccc(Br)n1)Nc1cccc2c1C1CC3(CCN1C2=O)OCCO3 (stereo not shown) [Compound 47] | 20 | 8 | 20 | 184 to 186 | 20 | 0.89 | 6 | 6 | > 10 | > 10 | 12 |
| COc1cc(NC(=O)Nc2cccc3c2C2CC4(CCN2C3=O)OCCO4)nc2ccccc12 (stereo not shown) [Compound 48] | 4 | 8 | 20 | 258 to 260 | 20 | 1 | 8 | 8 | > 10 | > 10 | > 25 |
| Cc1cccc(NC(=O)Nc2cccc3c2C2CC4(CCN2C3=O)SCCS4)n1 (stereo not shown) [Compound 50] | 15 | 5 | 15 | 154 to 156 | 2 | 2 | 6 | 12 | > 10 | > 10 | 10 |
| Cc1cnc(NC(=O)Nc2cccc3c2C2CC4(CCN2C3=O)SCCS4)cn1 (stereo not shown) [Compound 51] | 0.4 | 0.3 | 0.8 | > 260 | 8 | 0.05 | 0.4 | 0.2 | > 10 | 0.22 | 0.5 |
| COc1cc(NC(=O)Nc2cccc3c2C2CC(OC)CCN2C3=O)nc2ccccc12 (stereo not shown) [Compound 55, 1-(2-Methoxy-6-oxo-1,2,3,4,6,10b-hexahydropyrido[2,1-a]isoindol-10-yl)-3-(4-methoxyquinolin-2-yl)urea] | 15 | 3 | 5 | > 260 | 10 | 0.18 | 3 | 2.5 | > 10 | 8.5 | 10 |
| COC1CCN2C(=O)c3cccc(NC(=O)Nc4cnc(C)cn4)c3C2C1 (stereo not shown) [Compound 59, 1-(2-methoxy-6-oxo-1,2,3,4,6,10b-hexahydropyrido[2,1-a]isoindol-10-yl)-3-(5-methylpyrazin-2-yl)urea] | 6 | 1.2 | 6 | 140 to 142 | 5 | 0.14 | 5 | 3 | > 10 | 0.32 | 12 |
| O=C1c2cccc(NC(=S)Nc3cnccn3)c2C2CCCCN12 (stereo not shown) [Compound 63, 1-(6-Oxo-1,2,3,4,6,10b-hexahydropyrido[2,1-a]isoindol-10-yl)-3-(pyrazin-2-yl)thiourea] | > 25 | > 25 | > 25 | 204 | > 25 | 8 | > 25 | > 25 | > 100 | 26 | > 25 |
| O=C1c2cccc(NC(=S)Nc3cc[nH]n3)c2C2CCCCN12 (stereo not shown) [Compound 64, 1-(6-Oxo-1,2,3,4,6,10b-hexahydropyrido[2,1-a]isoindol-10-yl)-3-(1H-pyrazol-3-yl)thiourea] | 25 | 8 | 25 | 208 | > 25 | 16 | 6 | 20 | ≥ 100 | 56 | 20 |
| O=C1c2cccc(NC(=S)Nc3ncccn3)c2C2CCCCN12 (stereo not shown) [Compound 65, 1-(6-Oxo-1,2,3,4,6,10b-hexahydropyrido[2,1-a]isoindol-10-yl)-3-(pyrimidin-2-yl)thiourea] | 25 | > 25 | > 25 | 212 | > 25 | > 10 | > 25 | > 25 | ≥ 100 | > 10 | 20 |
| O=C1c2cccc(NC(=S)Nc3cccc(Br)n3)c2C2CCCCN12 (stereo not shown) [Compound 67, 1-(6-Bromopyridin-2-yl)-3-(6-oxo-1,2,3,4,6,10b-hexahydropyrido[2,1-a]isoindol-10-yl)thiourea] | 4 | 10 | 12 | 195 | 10 | 4.5 | 8 | 2 | 92 | 8.1 | 3 |
